We go through 13 compounds from patent publication US11370775B2, “Substituted benzimidazole derivatives as D-amino acid oxidase (DAAO) inhibitors” (NATIONAL TAIWAN UNIVERSITY, priority 2016, dated 2022).

Test [1] deals with T1, porcine kidney DAO (Sus scrofa, UniProt P00371).
T1 construct: purchased Sigma-Aldrich; host or cells: porcine kidney
As to the kind of experiment: pkDAO enzymatic assay (porcine kidney DAO IC50 assay). Type of test: biochemical. The conditions noted are these: D-alanine substrate, pH 8.3, 37° C., without FAD. As for the experimental part:
The DAAO enzymatic activity assay was modified according to the report of Oguri et al (Oguri, S., Screening of d-amino acid oxidase inhibitor by a new multi-assay method. Food chemistry 2007, 100 (2), 616). The DAAO activity was measured by using substrate D-alanine reaction produced hydrogen peroxide (H2O2) to further react with 3-(4-hydroxyphenyl) propionic acid (HPPA). The HPPA were oxidized by H2O2 and peroxidase to become the fluorogenic dimer which was measured to represent the activity of DAAO.
For porcine kidney DAO IC50 assay, the DAO substrate was prepared in 50 mM D-alanine (dissolved in 0.2 M Tris-HCl buffer, pH 8.3). A 100 μl of D-alanine solution was mixed with 4 μl (in 100% dimethyl sulfoxide, DMSO) of different concentrations of candidate compounds shown in tables below ranging from 48.83 μM, 97.66 μM, 195.31 μM, 390.63 μM, 781.25 μM, 1.56 mM, 3.13 mM, 6.25 mM, 12.50 mM, 25.00 mM, and 50.00 mM, with a final DMSO concentration of 0.167% in each reaction concentration. 10 μl of D-alanine and candidate compound mixture was incubated with 220 μl of Reaction Master Mix in black 96 well plate at 37° C. for 5 minutes. The Reaction Master Mix contained 110 μl of 5 U/mL porcine kidney DAO (Sigma-Aldrich, USA) solution (dissolved with 0.2 M Tris-HCl buffer, pH 8.3), 1.1 mL of 15 U/mL peroxidase solution (dissolved with 0.2 M Tris-HCl buffer, pH 8.3), 1.1 mL of 20 mM HPPA solution (dissolved with 0.2 M Tris-HCl buffer, pH 8.3), and 22 ml of 2 M Tris-HCl buffer (pH 8.3) for 110 reaction assays.
Fluorescence intensity (Fs) was measured at 405 nm by irradiation excitation at 320 nm. The higher the DAO enzymatic activity was, the higher the fluorescence intensity. The fluorometric inhibition indicator (Fi) was obtained from the following equation: Fi=(Fs-FDrug)/(FDMSO), where the fluorescent drug blank (FDrug) was measured in the drug mixture solution (using 0.2 M Tris HCl buffer, pH 8.3, without D-alanine). A DMSO blank (FDMSO) was measured under a 100% DMSO solution.
Although FAD is generally included in the reaction mixture in the D-amino acid oxidase assay since it easily dissociates from the holoenzyme, the present method was performed without FAD. The inhibitory effect of DAO inhibitors was compared by using inhibitory concentrations leading to 50% inhibition of DAAO activity (IC50). The IC50 values were calculated by nonlinear regression model using GraphPad Prism, version 5(GraphPad Software, Inc., La Jolla, Calif.).

Test [2] deals with T2, DAO in SK-N-SH neuroblastoma cells (Homo sapiens, UniProt P14920).
T2 construct: endogenous in cells; host or cells: SK-N-SH neuroblastoma cells (ATCC)
Put plainly: Cell-based DAO assay in SK-N-SH cells. More on the design: key to Relative DAO activity normalize to DMSO at Final Conc. 100 uM / Relative DAO activity normalize to DMSO at Final Conc. 10 uM: fraction of DMSO-control DAO activity (1 = DMSO). The conditions noted are these: SK-N-SH 1.25*10^5 cells/well, drug treated for 3.5 hr; for IC50: 50 mM D-serine. As for the experimental part:
The SK-N-SH neuroblastoma cell line was purchased from American Type Culture Collection (ATCC). It was cultured in MEM media (Invitrogen/GIBCO, Rockville, Md.) supplemented with 10% fetal bovine serum, 1×NEAA (Invitrogen/GIBCO) at 37° C. with 5% CO2 in a humidified atmosphere. Cells were trypsinized and plated into a black 96-well plate (NUNC No. 237108) at a density of 125,000 cells/well in 50 μl before cell-based DAO assay.
The cellular DAO activity assay was using a method modified according to the report of Brandish et al. (Brandish, P. E., et al., A cell-based ultra-high-throughput screening assay for identifying inhibitors of D-amino acid oxidase. J Biomol Screen, 2006. 11(5): p. 481-7). SK-N-SH cells were suspended in assay buffers of HANKS buffer solution (Invitrogen/GIBCO No. 14025-092) with 20 mM HEPES. D-serine of (final concentration 50 mM) was added in each well as the substrate for DAO enzyme. The Amplex Red Hydrogen Peroxide/Proxidase Assay Kit (Molecular Probes/Invitrogen, cat. A22188) was used to measure H2O2 production which diffused across the cell membrane into the assay medium after DAO reaction. After seeding cells into black 96-well plate (Nunc No. 237108, Denmark), 50 μl of SK-N-SH cells (125,000 cells/well) was mixed with 50 μl drug solution (2.5 fold of interesting final concentration) and incubate at 37° C. with 5% CO2 in a humidified atmosphere for 30 minutes. After 30 minutes later, 25 μl of a 5 fold mixture containing D-serine, horseradish peroxidase (HRP), and Amplex Red was added into wells containing 100 μl of cell-drugs mixture and incubated at 37° C. with 5% CO2 in a humidified atmosphere for 3 hours. The final concentration of DMSO is below 1%. The fluorescence signal was then detected in SpectraMax M2e microplate reader (Molecular Devices, USA) with excitation at 544 nm and emission at 590 nm. The optimized assay buffer contained a final concentration of 50 mM D-serine, 0.625 units HRP, and 50 μM Amplex Red in a 125 μl assay volume.

T2 sequence (P14920 whole entry): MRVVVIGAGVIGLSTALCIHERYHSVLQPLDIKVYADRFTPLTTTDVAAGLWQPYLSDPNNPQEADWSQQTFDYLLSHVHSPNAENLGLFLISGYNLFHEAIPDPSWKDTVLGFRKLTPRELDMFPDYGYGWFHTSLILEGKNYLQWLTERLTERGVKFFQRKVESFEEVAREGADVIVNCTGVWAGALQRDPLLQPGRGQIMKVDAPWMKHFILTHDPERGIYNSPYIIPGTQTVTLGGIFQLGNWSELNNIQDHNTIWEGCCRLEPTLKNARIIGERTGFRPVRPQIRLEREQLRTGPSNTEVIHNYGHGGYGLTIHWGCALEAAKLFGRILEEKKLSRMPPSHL
T1 sequence (P00371 whole entry): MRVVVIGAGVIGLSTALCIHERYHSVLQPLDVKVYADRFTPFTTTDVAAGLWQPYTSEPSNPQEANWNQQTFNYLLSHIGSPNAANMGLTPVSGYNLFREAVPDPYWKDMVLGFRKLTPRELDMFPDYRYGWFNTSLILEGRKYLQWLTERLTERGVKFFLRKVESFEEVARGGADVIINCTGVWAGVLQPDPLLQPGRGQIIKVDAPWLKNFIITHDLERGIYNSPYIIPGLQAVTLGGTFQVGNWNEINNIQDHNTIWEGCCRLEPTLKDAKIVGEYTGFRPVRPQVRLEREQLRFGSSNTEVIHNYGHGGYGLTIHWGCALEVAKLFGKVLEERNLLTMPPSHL

On to `COC(=O)c1ccc2c(c1)N=C(N(Cc1ncc(C)c(OC)c1C)Cc1ncc(C)c(OC)c1C)N(Cc1ccco1)C2` [compound 26072, Methyl 2-(bis((4-methoxy-3,5-dimethylpyridin-2-yl)methyl)amino)-3-(furan-2-ylmethyl)-3,4-dihydroquinazoline-7-carboxylate], for which the IC50 in test [1] worked out at 236 µM. Also, in test [2], the “Relative DAO activity normalize to DMSO at Final Conc. 10 uM” value is 0.87, the “Relative DAO activity normalize to DMSO at Final Conc. 100 uM” value is recorded as 0.74 and the IC50 was 393 µM.
Turning to `COc1c(C)cnc(C[S+]([O-])c2nc3cc(OC(=O)OC(C)(C)C)ccc3[nH]2)c1C` (stereo not shown) [compound 21132, tert-butyl (2-(((4-methoxy-3,5-dimethylpyridin-2-yl)methyl)sulfinyl)-1H-benzo[d]imidazol-5-yl)carbonate], the IC50 in test [1] came to 64.2 µM. In test [2], the “Relative DAO activity normalize to DMSO at Final Conc. 10 uM” value worked out at 0.94, the “Relative DAO activity normalize to DMSO at Final Conc. 100 uM” value is reported as 0.61 and the IC50 was found to be 175 µM.
In test [1], `COc1c(C)cnc(C[S+]([O-])c2nc3cc(OC(=O)C4CC4)ccc3[nH]2)c1C` (stereo not shown) [compound 28092, 2-(((4-methoxy-3,5-dimethylpyridin-2-yl)methyl)sulfinyl)-1H-benzo[d]imidazol-5-yl cyclopropanecarboxylate] registered an IC50 of 46.7 µM. Also, in test [2], the “Relative DAO activity normalize to DMSO at Final Conc. 10 uM” value is 0.94, the “Relative DAO activity normalize to DMSO at Final Conc. 100 uM” value worked out at 0.58 and the IC50 is 136 µM.
In turn, `COc1c(C)cnc(C[S+]([O-])c2nc3cc(OC(=O)c4ccco4)ccc3[nH]2)c1C` (stereo not shown) [compound 12122, 2-(((4-methoxy-3,5-dimethylpyridin-2-yl)methyl)sulfinyl)-1H-benzo[d]imidazol-5-yl furan-2-carboxylate] gave an IC50 in test [1] of 12.5 µM. In addition, in test [2], the “Relative DAO activity normalize to DMSO at Final Conc. 10 uM” value was found to be 0.98, the “Relative DAO activity normalize to DMSO at Final Conc. 100 uM” value amounted to 0.57 and half-maximal inhibition (IC50) required 147 µM.
The like results for `COc1c(C)cnc(C[S+]([O-])c2nc3cc(OC(=O)Cc4ccccc4)ccc3[nH]2)c1C` (stereo not shown) [compound 28094, 2-(((4-methoxy-3,5-dimethylpyridin-2-yl)methyl)sulfinyl)-1H-benzo[d]imidazol-5-yl 2-phenylacetate] were, in that order, 21.1 µM, 1.10, 0.58 and 121 µM.
Compound `COc1c(C)cnc(C[S+]([O-])c2nc3cc(OP(=O)(Oc4ccccc4)Oc4ccccc4)ccc3[nH]2)c1C` (stereo not shown) [compound 13084, 2-(((4-methoxy-3,5-dimethylpyridin-2-yl)methyl)sulfinyl)-1H-benzo[d]imidazol-5-yl diphenyl phosphate] registered an IC50 in test [1] of 181 µM. In test [2], the “Relative DAO activity normalize to DMSO at Final Conc. 10 uM” value amounted to 0.71, the “Relative DAO activity normalize to DMSO at Final Conc. 100 uM” value is given as 0.49 and the IC50 was determined as 34.9 µM.
As to `COc1c(C)cnc(CN(Cc2ncc(C)c(OC)c2C)c2nc3cc(C(=O)O)ccc3n2CCC2=CCCCC2)c1C` [compound 21105, 2-(bis((4-methoxy-3,5-dimethylpyridin-2-yl)methyl)amino)-1-(2-(cyclohex-1-en-1-yl)ethyl)-1H-benzo[d]imidazole-5-carboxylic acid], in test [1], the IC50 stood at 301 µM. Moreover, in test [2], the “Relative DAO activity normalize to DMSO at Final Conc. 10 uM” value came to 0.89, the “Relative DAO activity normalize to DMSO at Final Conc. 100 uM” value is given as 0.58 and half-maximal inhibition (IC50) was put at 219 µM.
The like results for `O=c1[nH]oc2ccc(Cl)cc12` [CBIO, reference compound] were, in that order, 0.583 µM, 1.00, 0.83 and 392 µM.
With `COc1c(C)cnc(C[S+]([O-])c2nc3cc(OC(=O)C=C(C)C)ccc3[nH]2)c1C` (stereo not shown) [compound 12125, 2-(((4-methoxy-3,5-dimethylpyridin-2-yl)methyl)sulfinyl)-1H-benzo[d]imidazol-5-yl 3-methylbut-2-enoate], in test [1], half-maximal inhibition (IC50) was put at 13.3 µM. Further, in test [2], the “Relative DAO activity normalize to DMSO at Final Conc. 10 uM” value was 0.80, the “Relative DAO activity normalize to DMSO at Final Conc. 100 uM” value is 0.50 and the IC50 came to 122 µM.
In test [1], `CCCCC(=O)Oc1ccc2[nH]c([S+]([O-])Cc3ncc(C)c(OC)c3C)nc2c1` (stereo not shown) [compound 25016, 2-(((4-methoxy-3,5-dimethylpyridin-2-yl)methyl)sulfinyl)-1H-benzo[d]imidazol-5-yl pentanoate] displayed a half-maximal inhibitory concentration (IC50) of 13.4 µM. In test [2], the “Relative DAO activity normalize to DMSO at Final Conc. 10 uM” value amounted to 1.00, the “Relative DAO activity normalize to DMSO at Final Conc. 100 uM” value came to 0.62 and the IC50 turned out to be 188 µM.
Consider `COc1c(C)cnc(C[S+]([O-])c2nc3cc(OC(C)=O)ccc3[nH]2)c1C` (stereo not shown) [compound 21122, 2-(((4-methoxy-3,5-dimethylpyridin-2-yl)methyl)sulfinyl)-1H-benzo[d]imidazol-5-yl acetate], for which, in test [1], half-maximal inhibition (IC50) was put at 21.1 µM. Moreover, in test [2], the “Relative DAO activity normalize to DMSO at Final Conc. 10 uM” value is 0.99, the “Relative DAO activity normalize to DMSO at Final Conc. 100 uM” value is reported as 0.50 and half-maximal inhibition (IC50) was put at 149 µM.
Regarding `COC(=O)c1ccc2c(c1)N=C(NCc1ncc(C)c(OC)c1C)N(CCC1=CCCCC1)C2` [compound 21106, Methyl 3-(2-(cyclohex-1-en-1-yl)ethyl)-2-(((4-methoxy-3,5-dimethylpyridin-2-yl)methyl)amino)-3,4-dihydroquinazoline-7-carboxylate], in test [1], half-maximal inhibition (IC50) was put at 488 µM. Also, in test [2], the “Relative DAO activity normalize to DMSO at Final Conc. 10 uM” value is reported as 1.02, the “Relative DAO activity normalize to DMSO at Final Conc. 100 uM” value was found to be 0.77 and the IC50 came out at 478 µM.
For `COc1ccc(C(=O)Oc2ccc3[nH]c([S+]([O-])Cc4ncc(C)c(OC)c4C)nc3c2)cc1` (stereo not shown) [compound 11020, 2-(((4-methoxy-3,5-dimethylpyridin-2-yl)methyl)sulfinyl)-1H-benzo[d]imidazol-5-yl 4-methoxybenzoate] the same measures were 10.4 µM, 0.97, 0.67 and 221 µM.

By IC50 is commonly meant the concentration needed to halve the response being measured.
